The term melting point denotes the temperature of the solid-liquid transition.

On to `CCC=Cc1c(C(C)C)nc(C(C)C)c(CO)c1-c1ccc(F)cc1`, for which the melting point fell in the range of 115 to 117 °C.
The same measure for `O=C(O)[C@@H]1Cc2ncn(Cc3ccccc3)c2CN1C(=O)c1ccccc1`: 233 to 235 °C; for `CC(C(=O)O)c1ccc(Oc2ccc(Cl)cc2)cc1` (stereo not given): 105 to 107 °C; for `COc1ccc(Cl)c(NC(=O)N(C)c2cc(Nc3ccc(N4CCN(C)CC4)cc3)ncn2)c1Cl`: 162 to 163 °C.
For `CC(NC(=O)C(NC(=O)OCc1ccccc1)C(C)C)C(=O)NC(CC(=O)OC(C)(C)C)C(O)c1nc2ccccc2o1` (mixture of isomers) the value was 81 to 83 °C; for `CC(=O)NCc1ccc2c(c1)N(C1CCN(CCc3ccc(F)cc3)CC1)CC2(C)C`, 131 to 133 °C; for `CC(=NOCCO)c1ccc(S(=O)(=O)c2ccccc2)nc1`, 77 to 78 °C.
Compound `Cn1ncc(/C=C/C(=O)Nc2ccc(Cc3n[nH]c(=O)o3)cc2)c1-c1ccc(F)cc1` registered a melting point of 262 to 263 °C.
The same measure for `COc1ccc(/C=C/C(=O)Nc2ccccc2C(=O)O)cn1`: 209 to 211 °C.
The same measure for `CC(=O)C1(O)CCC2C3CC(C)C4=CC(=O)CCC4(C)C3(F)CCC21C` (stereo not given): 232 to 235 °C; for `COc1ccc(CS(=O)(=O)C(C)(Cc2ccccc2)C(=O)N(O)O)cc1` (stereo not given): 58 to 59 °C.
For `CC(C)(N)CNS(=O)(=O)c1ccccc1` the value was 152 to 153 °C.
`COc1ccc(C(Cc2ccncc2)c2ccc(C(=O)O)cc2)cc1OC1CCCC1` (stereo not given) displayed a melting point of 161 to 163 °C.
`Cc1ccc(C)c(Nc2ncc(C(=O)O)c(=O)[nH]2)c1` registered a melting point of 242 to 244 °C.
Take `O=C(O)C(=O)c1ccc(OCCOc2cc3ccccc3cc2OCCOc2ccccc2)cc1`: the melting point was in the range of 176 to 177 °C.
For `NC(=O)c1ncn2c1CN=C(c1ccccc1Cl)c1cc(Cl)ccc1-2` the value was over 300 °C; for `Sc1c(Cl)ccc(Cl)c1S`, 57 to 58 °C.
The same measure for `CC1(C)OC(=O)C(OC2CCCC2)=C1c1ccc(S(C)(=O)=O)cc1`: 121 to 122 °C; for `CCC(C)(Cc1cn(C)c2ccc(OC)cc12)[N+](=O)[O-]` (stereo not given): 95 to 96 °C.
The compound `CCc1c(CC(=O)NCCCCCCNC(=O)Cc2ccc(OC)cc2)ccc(OC)c1OC` came in with a melting point of 123 to 125 °C.
The same measure for `CC(=O)NC[C@H]1CN(c2ccc(N3CCC(n4ncn(C)c4=S)CC3)c(F)c2)C(=O)O1`: 182 to 185 °C.
`COC(=O)c1cccc2[nH]c(=O)n(Cc3ccc(-c4ccccc4C#N)cc3)c12` registered a melting point of 250 to 253 °C.
The same measure for `CN(CC1(C)Cn2cc([N+](=O)[O-])nc2O1)C(=O)OCc1ccc(F)cc1` (stereo not given): 169 to 170 °C; for `Cn1cc2c(c(C#N)c1=O)Nc1ccccc1S2`: 292 to 295 °C; for `CC(=O)OC1CSC(Oc2cccc(-c3cccnc3)n2)C(OC(C)=O)C1OC(C)=O` (stereo not given): 141 °C.
The same measure for `O=C(CCCCCCCCC(=O)CC(=O)c1ccccc1)CC(=O)c1ccccc1`: 108 to 111 °C; for `Cn1cc(Br)cc(Nc2ccc(N3CCN(C(=O)OC(C)(C)C)CC3=O)cn2)c1=O`: 130 to 132 °C; for `CCCCNc1ccccc1S(=O)(=O)NC(=O)n1nc(SC)n(C)c1=O`: 120 °C.
For `COc1cccc2c1C(=O)c1ccccc1C21CCN(C)CC1` the value was 170 to 172 °C; for `CC(=O)c1ccc(Cc2c(Cl)cc(N3N=CCNC3=O)cc2Cl)cc1`, 189 to 190 °C.
`CC(C)(N)c1ccc(-c2nc(Nc3ccc(CCN4CCOCC4)cc3)ncc2C#N)cc1` had a melting point of 156 °C.
In turn, `CCOC(=O)c1cn(-c2ccccc2)nc1OCc1ccccc1` showed a melting point of 113 to 114 °C.
Compound `NS(=O)(=O)c1ccc(-c2noc(-c3cnn4c(C5CC5)cc(-c5ccc(C(F)(F)F)cc5)nc34)n2)s1` displayed a melting point of 290 °C.
Consider `CCCN(CCC)c1nc2c(c(-c3c(C)cc(C)cc3C)cn2C)c(=O)n1C`, for which the melting point was 100 to 102 °C.
For `C[C@H](NC(=O)CCSC(=O)c1ccccc1)C(=O)O` the value was 99 to 100 °C; for `CC1(C)NC(=O)c2ccccc21`, 159 to 160 °C; for `CCCNC(=O)Nc1ccc(C(=O)c2ncc3ccccn23)cc1C(=O)OC`, 205 °C.
The same measure for `COc1ccccc1C1=C(C#N)C(c2ccccc2[N+](=O)[O-])c2c[nH]nc2N1` (stereo not given): 207 °C.
The compound `COCCCN(C(=O)N(CCCl)N=O)C1(O)COC(OCC(C)C)C(O)C1O` (stereo not given) returned a melting point of 67 to 69 °C.
`COC(=O)c1ccc(/C=C\c2ccc(C(=O)OC)cc2Cl)cc1` came in with a melting point of 134 to 135 °C.
The same measure for `Cc1cc(OCc2ccc(-c3ccccc3-c3nnn(C(c4ccccc4)(c4ccccc4)c4ccccc4)n3)cc2)c(C(=O)c2ccccc2)c(C)n1`: 84 to 91 °C; for `O=C(NC(=O)c1c(F)cccc1F)Nc1ccc(C(O)(C(F)(F)F)C(F)(F)F)cc1`: 205 to 207 °C.
For `Nc1cc(F)c(N2CCOCC2)cc1Cl`, the melting point came out at 89.5 °C.
Consider `COc1ccc(C[C@H]2[C@H](CO)CCCN2C)cc1` (relative stereo), for which the melting point lay within 66 to 68 °C.
The same measure for `O=c1[nH]c2cc(F)ccc2c(=O)n1CCCN1CC=C(c2ccc(Cl)cc2)CC1`: 197 to 198 °C.
The compound `O=C(O)C(=O)CC(=O)c1cccn1Cc1cccc(F)c1` displayed a melting point of 147 to 149 °C.
For `O=[N+]([O-])c1ccc2c(c1)S(=O)(=O)c1ccccc1-2` the value was 259 °C.
The same measure for `CN(C)C(=O)NS(=O)(=O)c1ccccc1OC(Cl)=CCl`: 218 to 220 °C.
The same measure for `O=C(Nc1ccnn1-c1c(Cl)cc(C(F)(F)F)c(Cl)c1Cl)C(Cl)Cl`: 156 to 161 °C.
For the compound `O=C1C2CC(c3ccc([N+](=O)[O-])cc3)(C2)C(=O)N1Cc1ccccc1`, the melting point lay within 150 to 152 °C.
Compound `CS(=O)(=O)c1cnc(Cl)c(I)c1` yielded a melting point of 178 to 180 °C.
The same measure for `N=C(NO)c1cnn2c(C(F)(F)F)cc(-c3ccc(C(F)(F)F)cc3)nc12`: 252 °C; for `ClCCCOc1ccccc1Nc1nc(Cl)nc2[nH]cnc12`: 205 °C.
`CC(C)[C@H](NC(=O)OCc1ccccc1)C(=O)NC(Cc1ccccc1)C(O)C(Cc1ccccc1)NC(=O)[C@@H](NC(=O)c1cccnc1)C(C)C` (stereo not given in full) had a melting point of 196 to 199 °C.
The same measure for `Cc1oc(-c2ccco2)nc1COc1ccc(COc2ncccc2C#N)cc1`: 135 to 136 °C.
Turning to `NS(=O)(=O)c1ccc(-c2cc(-c3nc(-c4ccc(F)cc4)cc(C(F)(F)F)n3)ccn2)s1`, the melting point came out at 282 °C.
For `COc1cc(C(=O)NS(=O)(=O)c2ccccc2C)ccc1Cc1cccc2ccc(NC(=O)CC3CCCC3)cc12` the value was 248 to 249 °C; for `O=C1OC(COc2ccc(CO)cc2)CN1c1ccc(Cl)cc1` (stereo not given), 149 to 150 °C; for `CCOC(=O)c1c[nH]c2nc(SCC)c(F)cc2c1=O`, 280 to 284 °C.
On to `COc1cccc2c1OC(CN1CCC(CNC(=O)c3cccnc3N)CC1)CO2` (stereo not given), for which the melting point was in the range of 57 to 60 °C.
